SMILES | logP
COC(=O)c1cncc(N(C)C)n1 | 0.9
Cc1cnc(C)c(C)n1 | 0.95
Cc1nccnc1C | 0.54
Cc1cncc(N)n1 | 0.35
COc1cncc(C)n1 | 1.29
COc1cnc(OC)cn1 | 1.14
CCc1nc(C#N)c(C#N)nc1Cl | 1.79
CCc1nccnc1C | 1.07
CCc1nccnc1CC | 1.51
CCOC(=O)c1cnc(C)cn1 | 0.61
CCCc1nccnc1C | 1.57
Cc1cnc(C#N)cn1 | 0.26
CCCCc1nccnc1C | 2.1
Cc1cncc(N(C)C)n1 | 1.57
Cc1cncc(C(N)=O)n1 | -0.13
Nc1cncc(N)n1 | -0.45
COc1ccnc(C#N)n1 | 0.86
Cc1cncc(C)n1 | 0.54
COc1cncc(N)n1 | 0.73
Cc1nc(C#N)c(C#N)nc1Cl | 1.29

SMILES | logP
Clc1cnc(Cl)cn1 | 1.58
N#Cc1nccnc1C#N | 0.38
COc1cnc(N)cn1 | 0.63
CCOc1cncc(OCC)n1 | 2.55
Cc1nccnc1OC(C)C | 2.24
CCOC(=O)c1nccnc1C(=O)OCC | 0.65
COc1cncc(C(N)=O)n1 | 0.13
CCOc1cncc(OC)n1 | 1.98
CCOc1cncc(C(N)=O)n1 | 0.61
Cc1cncc(C#N)n1 | 0.44
COC(=O)c1cnc(C)cn1 | 0.17
COc1cncc(OC)n1 | 1.58
COC(=O)c1cncc(OC)n1 | 0.69
CC(=O)Nc1cncc(C)n1 | 0.38
CN(C)c1cncc(C#N)n1 | 1.12
CCCCc1nc(C#N)c(C#N)nc1Cl | 2.89
CCc1ncc(C)nc1CC | 1.95
CCOC(=O)c1cncc(C)n1 | 0.51
COC(=O)c1nccnc1C(=O)OC | -0.02
CCOC(=O)c1cncc(N(C)C)n1 | 1.24

SMILES | logP
COc1cnc(N(C)C)cn1 | 1.65
COc1cnc(Cl)cn1 | 1.52
COc1cncc(NC(C)=O)n1 | 0.82
COC(=O)c1cncc(C)n1 | 0.1
COc1cncc(C#N)n1 | 0.95
Cc1cnc(C)c(Cl)n1 | 1.5
COc1cncc(N(C)C)n1 | 1.99
CN(C)c1cnc(Cl)cn1 | 1.7
COc1nccnc1C | 1.24
COC(=O)c1ccc(Br)o1 | 1.84
CCOC(=O)c1cncc(OC)n1 | 1.2
Cc1cnc(Cl)cn1 | 1.08
CN(C)c1cncc(C(N)=O)n1 | 0.38
Cc1nc(C)c(C)nc1C | 1.28
CC(=O)Nc1cnc(Cl)cn1 | 0.56
CSc1nccnc1C | 1.81
CCOc1cnc(Cl)cn1 | 1.99
Cc1cnc(C(N)=O)cn1 | -0.25
